PubChem BioAssay AID248 (DTP/NCI, 2004)
“And” between values parts separate entries of the source, which are not always exact repeats. Equal entries are not always repeated. Toxic doses and inconclusive results are not listed.

System: L1210 leukemia ip in BDF1 mice, survival T/C
Assay: NCI In Vivo Anticancer Drug Screen. Data for tumor model L1210 Leukemia (intraperitoneal) in B6D2F1 (BDF1) mice
Conditions: endpoint: mean survival time, higher = longer survival
Outline: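 Transplantable tumor model; survival measured in treated vs vehicle control mice. Value = treated/control.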

[1] = dose: 100.0 mg/kg/injection, schedule: Q01DX009 (ip), vehicle: gum acacia
[2] = dose: 200.0 mg/kg/injection, schedule: Q01DX009 (ip), vehicle: gum acacia
[3] = dose: 400.0 mg/kg/injection, schedule: Q01DX009 (ip), vehicle: gum acacia
[4] = dose: 100.0 mg/kg/injection, schedule: Q01DX009 (ip), vehicle: saline with Tween-80
[5] = dose: 200.0 mg/kg/injection, schedule: Q01DX009 (ip), vehicle: saline with Tween-80
[6] = dose: 400.0 mg/kg/injection, schedule: Q01DX009 (ip), vehicle: saline with Tween-80
[7] = dose: 100.0 mg/kg/injection, schedule: Q01DX009 (ip), vehicle: Klucel (hydroxypropylcellulose) (HPC)
[8] = dose: 200.0 mg/kg/injection, schedule: Q01DX009 (ip), vehicle: Klucel (hydroxypropylcellulose) (HPC)
[9] = dose: 400.0 mg/kg/injection, schedule: Q01DX009 (ip), vehicle: Klucel (hydroxypropylcellulose) (HPC)
[10] = dose: 50.0 mg/kg/injection, schedule: Q01DX009 (ip), vehicle: Klucel (hydroxypropylcellulose) (HPC)
[11] = dose: 100.0 mg/kg/injection, schedule: Q01DX001 (ip), vehicle: Klucel (hydroxypropylcellulose) (HPC)
[12] = dose: 200.0 mg/kg/injection, schedule: Q01DX001 (ip), vehicle: Klucel (hydroxypropylcellulose) (HPC)
[13] = dose: 100.0 mg/kg/injection, schedule: Q01DX001 (ip), vehicle: carboxymethylcellulose (CMC)
[14] = dose: 200.0 mg/kg/injection, schedule: Q01DX001 (ip), vehicle: carboxymethylcellulose (CMC)
[15] = dose: 50.0 mg/kg/injection, schedule: Q04DX003 (ip), vehicle: saline
[16] = dose: 100.0 mg/kg/injection, schedule: Q04DX003 (ip), vehicle: saline
[17] = dose: 200.0 mg/kg/injection, schedule: Q04DX003 (ip), vehicle: saline
[18] = dose: 400.0 mg/kg/injection, schedule: Q04DX003 (ip), vehicle: saline
[19] = dose: 100.0 mg/kg/injection, schedule: Q04DX002 (ip), vehicle: Klucel (hydroxypropylcellulose) (HPC)

SMILES: CC(C)(C)c1ccc(OC(=O)Nc2cccc(C(F)(F)F)c2)cc1
- T/C [1]: 101 % of control
- T/C [2]: 95 % of control
- T/C [3]: 103 % of control

SMILES: COc1ccc2nc(NCN3C(=O)c4ccccc4C3=O)sc2c1
- T/C [4]: 96 % of control
- T/C (dose: 100.0 mg/kg/injection, schedule: Q04DX003 (ip), vehicle: acetone): 88 % of control
- T/C [5]: 95 % of control
- T/C (dose: 200.0 mg/kg/injection, schedule: Q04DX003 (ip), vehicle: acetone): 88 % of control
- T/C [6]: 93 % of control
- T/C (dose: 400.0 mg/kg/injection, schedule: Q04DX003 (ip), vehicle: acetone): 90 % of control

SMILES: Clc1ccc(/C=C/c2ccc(Cl)cc2)cc1
- T/C (dose: 75.0 mg/kg/injection, schedule: Q04DX003 (ip), vehicle: Klucel (hydroxypropylcellulose) (HPC)): 95 % of control
- T/C (dose: 150.0 mg/kg/injection, schedule: Q04DX003 (ip), vehicle: Klucel (hydroxypropylcellulose) (HPC)): 95 % of control
- T/C (dose: 300.0 mg/kg/injection, schedule: Q04DX003 (ip), vehicle: Klucel (hydroxypropylcellulose) (HPC)): 98 % of control

SMILES: Cc1ccc(/C([O-])=C(\C(=S)Nc2cccc(Cl)c2)[n+]2ccccc2)cc1
- T/C [7]: 104 % of control
- T/C [8]: 95 % of control
- T/C [9]: 108 % of control

SMILES: CCOC(=O)c1[nH]c(C(=O)O)c(CCC(=O)OC)c1C
- T/C [10]: 110 % of control
- T/C [11]: 93 % of control
- T/C [7]: 90 % of control
- T/C [12]: 98 % of control
- T/C (dose: 300.0 mg/kg/injection, schedule: Q01DX009 (ip), vehicle: Klucel (hydroxypropylcellulose) (HPC)): 100 % of control
- T/C (dose: 400.0 mg/kg/injection, schedule: Q01DX001 (ip), vehicle: Klucel (hydroxypropylcellulose) (HPC)): 97 % of control

SMILES: NC1=NC(=S)C2N=C(N=Nc3ccc(C(=O)NC(CCC(=O)O)C(=O)O)cc3)N=C2N1 (configuration not stated)
- T/C (dose: 1.56 mg/kg/injection, schedule: Q01DX009 (ip), vehicle: Klucel (hydroxypropylcellulose) (HPC)): 156 % of control and 177 % of control and 194 % of control
- T/C (dose: 3.13 mg/kg/injection, schedule: Q01DX009 (ip), vehicle: Klucel (hydroxypropylcellulose) (HPC)): 189 % of control
- T/C (dose: 25.0 mg/kg/injection, schedule: Q01DX009 (ip), vehicle: Klucel (hydroxypropylcellulose) (HPC)): 120 % of control
- T/C [10]: 121 % of control
- T/C (dose: 50.0 mg/kg/injection, schedule: Q04DX003 (ip), vehicle: Klucel (hydroxypropylcellulose) (HPC)): 114 % of control
- T/C [7]: 88 % of control

SMILES: O=C(CCCCC(=O)OCC1COCO1)OCC1COCO1 (configuration not stated)
- T/C (dose: 222.0 mg/kg/injection, schedule: Q01DX Z (ip), vehicle: methylcellulose (MC)): 98 % of control
- T/C (dose: 333.0 mg/kg/injection, schedule: Q01DX Z (ip), vehicle: methylcellulose (MC)): 98 % of control
- T/C (dose: 500.0 mg/kg/injection, schedule: Q01DX Z (ip), vehicle: methylcellulose (MC)): 98 % of control

SMILES: Cc1c(/C=C(\C#N)c2ccc([N+](=O)[O-])cc2)c(=O)n(-c2ccccc2)n1C
- T/C [1]: 93 % of control
- T/C (dose: 100.0 mg/kg/injection, schedule: Q04DX003 (ip), vehicle: gum acacia): 92 % of control
- T/C [2]: 90 % of control
- T/C (dose: 200.0 mg/kg/injection, schedule: Q04DX003 (ip), vehicle: gum acacia): 105 % of control
- T/C [3]: 89 % of control
- T/C (dose: 400.0 mg/kg/injection, schedule: Q04DX003 (ip), vehicle: gum acacia): 95 % of control

SMILES: Cc1ccc(S(=O)(=O)Nc2ccc3nc(C)oc3c2)cc1
- T/C [4]: 100 % of control
- T/C (dose: 100.0 mg/kg/injection, schedule: Q04DX003 (ip), vehicle: saline with Tween-80): 96 % of control
- T/C [5]: 102 % of control
- T/C (dose: 200.0 mg/kg/injection, schedule: Q04DX003 (ip), vehicle: saline with Tween-80): 91 % of control
- T/C [6]: 93 % of control
- T/C (dose: 400.0 mg/kg/injection, schedule: Q04DX003 (ip), vehicle: saline with Tween-80): 89 % of control

SMILES: c1ccc2c(c1)CC([CH2][Hg][CH2]C1Cc3ccccc3O1)O2 (configuration not stated)
- T/C [13]: 101 % of control
- T/C [14]: 95 % of control

SMILES: CC(=O)Nc1ccc(C(=O)O)c(O)c1
- T/C [15]: 113 % of control
- T/C [16]: 108 % of control
- T/C [17]: 105 % of control

SMILES: CC(=O)Nc1cccc(OCCCOc2cccc(C(=N)N)c2)c1
- T/C [10]: 103 % of control
- T/C [7]: 100 % of control
- T/C [8]: 94 % of control

SMILES: NCCCC(=O)NCCCCCCCCCCNC(=O)CCCN
- T/C (dose: 3.0 mg/kg/injection, schedule: Q01DX012 (ip), vehicle: saline): 105 % of control
- T/C (dose: 10.0 mg/kg/injection, schedule: Q01DX012 (ip), vehicle: saline): 108 % of control
- T/C (dose: 30.0 mg/kg/injection, schedule: Q01DX012 (ip), vehicle: saline): 103 % of control

SMILES: [Br][Ce]([Br])[Br]
- T/C [16]: 91 % of control
- T/C [17]: 94 % of control
- T/C [18]: 94 % of control

SMILES: CC(=O)OC1CCC(C(C)(C)C)CC1 (configuration not stated)
- T/C [4]: 98 % of control
- T/C [5]: 95 % of control

SMILES: NC(=O)C1CCNCC1
- T/C (dose: 100.0 mg/kg/injection, schedule: Q04DX002 (ip), vehicle: saline): 108 % of control
- T/C (dose: 200.0 mg/kg/injection, schedule: Q04DX002 (ip), vehicle: saline): 102 % of control
- T/C (dose: 400.0 mg/kg/injection, schedule: Q04DX002 (ip), vehicle: saline): 115 % of control

SMILES: CCCCCCCCCCCCCCCCS(=O)(=O)N/N=C/c1ccc2c(c1)OCO2
- T/C [13]: 101 % of control
- T/C [14]: 98 % of control
- T/C (dose: 400.0 mg/kg/injection, schedule: Q01DX001 (ip), vehicle: carboxymethylcellulose (CMC)): 104 % of control

SMILES: Cn1ccnc1CC(C)(O)c1ccccc1 (configuration not stated)
- T/C [11]: 92 % of control
- T/C [7]: 97 % of control and 98 % of control
- T/C [19]: 96 % of control
- T/C [12]: 97 % of control
- T/C [8]: 108 % of control and 88 % of control
- T/C (dose: 200.0 mg/kg/injection, schedule: Q04DX002 (ip), vehicle: Klucel (hydroxypropylcellulose) (HPC)): 108 % of control
- T/C [9]: 102 % of control
- T/C (dose: 400.0 mg/kg/injection, schedule: Q04DX002 (ip), vehicle: Klucel (hydroxypropylcellulose) (HPC)): 103 % of control

SMILES: CCCCC(CC)C(O)C1CCCCC1O (configuration not stated)
- T/C [7]: 102 % of control
- T/C (dose: 100.0 mg/kg/injection, schedule: Q04DX003 (ip), vehicle: Klucel (hydroxypropylcellulose) (HPC)): 101 % of control
- T/C [8]: 96 % of control
- T/C (dose: 200.0 mg/kg/injection, schedule: Q04DX003 (ip), vehicle: Klucel (hydroxypropylcellulose) (HPC)): 96 % of control
- T/C [9]: 86 % of control
- T/C (dose: 400.0 mg/kg/injection, schedule: Q04DX003 (ip), vehicle: Klucel (hydroxypropylcellulose) (HPC)): 102 % of control

SMILES: COc1ccc(C)cc1NN
- T/C (dose: 25.0 mg/kg/injection, schedule: Q01DX009 (ip), vehicle: saline): 101 % of control
- T/C (dose: 50.0 mg/kg/injection, schedule: Q01DX009 (ip), vehicle: saline): 97 % of control
- T/C [16]: 96 % of control

SMILES: C1=CC([P+](Cc2ccccc2)(c2ccccc2)c2ccccc2)CC1 (configuration not stated)
- T/C (dose: 6.25 mg/kg/injection, schedule: Q04DX003 (ip), vehicle: saline): 95 % of control
- T/C (dose: 12.5 mg/kg/injection, schedule: Q04DX003 (ip), vehicle: saline): 90 % of control
- T/C (dose: 25.0 mg/kg/injection, schedule: Q04DX003 (ip), vehicle: saline): 96 % of control
- T/C [15]: 93 % of control and 96 % of control

SMILES: NC(=O)C(CCC(=O)O)NC(=O)OCc1ccccc1 (configuration not stated)
- T/C (dose: 25.0 mg/kg/injection, schedule: Q04DX002 (ip), vehicle: Klucel (hydroxypropylcellulose) (HPC)): 100 % of control
- T/C (dose: 50.0 mg/kg/injection, schedule: Q04DX002 (ip), vehicle: Klucel (hydroxypropylcellulose) (HPC)): 92 % of control
- T/C [19]: 100 % of control

SMILES: Cc1cc(N)ccc1/C=C/C(=O)O
- T/C [16]: 97 % of control
- T/C [17]: 98 % of control
- T/C [18]: 93 % of control

SMILES: COC(=O)C1(COC(C)=O)CC1
- T/C (dose: 50.0 mg/kg/injection, schedule: Q01DX001 (ip), vehicle: saline with Tween-80): 103 % of control
- T/C (dose: 100.0 mg/kg/injection, schedule: Q01DX001 (ip), vehicle: saline with Tween-80): 97 % of control
- T/C (dose: 200.0 mg/kg/injection, schedule: Q01DX001 (ip), vehicle: saline with Tween-80): 103 % of control

SMILES: CNC(=O)Oc1cc(OC)ccc1C(=O)c1ccccc1
- T/C [7]: 94 % of control
- T/C [8]: 96 % of control
- T/C [9]: 97 % of control
